Test results reported in paper PMC12393591, “Targeting Plasminogen Activator Inhibitor-1 with a Novel Small Molecule Inhibitor Attenuates Lung Fibrosis” (Research Square, 2025).
Where two headings read alike, the source gives them in different places.

What was measured:
[1] = system: idiopathic pulmonary fibrosis; design: method as in PMID 40387033; details: patients with IPF, phase 3 clinical trial; cited from earlier work
[2] = target: recombinant active human PAI-1 (Homo sapiens, UniProt P05121); test: PAI-1 inhibitory activity against uPA (fluorogenic uPA substrate); type: biochemical; details: for IC50: read-out: IC50 for inhibiting the activity of PAI-1 against uPA
Chain of recombinant active human PAI-1 (P05121 24-402): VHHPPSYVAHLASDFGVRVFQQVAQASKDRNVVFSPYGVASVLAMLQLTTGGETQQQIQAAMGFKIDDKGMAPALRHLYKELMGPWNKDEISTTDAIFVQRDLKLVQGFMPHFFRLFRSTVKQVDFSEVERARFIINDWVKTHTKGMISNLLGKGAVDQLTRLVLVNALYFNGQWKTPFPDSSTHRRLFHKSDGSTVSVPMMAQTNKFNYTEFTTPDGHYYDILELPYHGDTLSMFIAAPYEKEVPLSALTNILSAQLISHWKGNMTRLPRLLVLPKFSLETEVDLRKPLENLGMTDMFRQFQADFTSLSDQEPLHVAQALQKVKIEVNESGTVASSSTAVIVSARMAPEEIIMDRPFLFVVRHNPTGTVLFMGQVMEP
Procedure: At each drug concentration, parallel control reactions without PAI-1 were assembled. Residual enzymatic activity was determined by addition of an equal volume of 100 μM Z-Gly-Gly-Arg-AMC (Calbiochem) fluorogenic uPA substrate, and the rate of AMC release monitored at 23°C (excitation 370 nm and emission 440 nm). The percent change in PAI-1 activity was determined according to Eq. 1: [(Ei – Pi) / Ei] / [(E0 - P0) / E0], where Ei is the enzyme activity at drug concentration i; Pi is the enzyme activity in the presence of PAI-1 at drug concentration i; E0 is the enzyme activity in the absence of drug; and P0 is the enzyme activity in the presence of PAI-1 but in the absence of drug. Data were then plotted as the residual PAI-1 activity as a percentage of the control PAI-1 activity vs. compound concentration and from these curves the IC50 of each compound was calculated.

[3] = Non-GLP single dose PK, oral gavage; type: in vivo, CD-1 mice; details: mouse plasma, single dose 30 mg/kg oral gavage, n=3, mean ± SD
Procedure: A non-GLP comparative, single dose PK analysis of MDI-2268 versus MDI-2517 was performed by the University of Michigan Pharmacokinetics Core in CD-1 mice. Briefly, MDI-2268 or MDI-2517 were suspended in 0.5% methylcellulose in water and given orally by gavage at 30 mg/kg (10mL/kg) to 3 mice each. Blood was collected by using heparinized calibrated pipettes at 0.5h, 2h, 4h, and 7h and centrifuged immediately at 15,000g for 10 min. The plasma was collected, which was frozen at −80°C for later LC-MS analysis.

[4] = system: bleomycin-induced lung fibrosis; test: Single-dose bleomycin lung injury model (hydroxyproline, weight, histology); type: in vivo, C57BL/6 mice
Procedure: Weight and age matched mice were anesthetized with isoflurane and received an oropharyngeal instillation of bleomycin (2.5 u/kg in 50 μL of sterile PBS) (Sigma Pharmaceuticals). Control mice received 50 μl of PBS alone. Mice were intermittently weighed through day 21. Hydroxyproline content of the lung was measured as previously described. The left lung was inflation-fixed at 25 cm H2O pressure with 10% neutral-buffered formalin, removed en bloc, further fixed in 10% neutral-buffered formalin overnight, and then paraffin embedded. Five-micron sections were stained using hematoxylin and eosin, and picrosirius red methods.

[5] = system: lung fibrosis induced by targeted type II alveolar epithelial cell injury; test: Targeted AEC2 injury model (diphtheria toxin in DTR mice; hydroxyproline, weight, histology); type: in vivo, DTR-expressing mice (C57BL/6 background); details: 60 mg/kg twice daily
[6] = system: lung fibrosis induced by targeted type II alveolar epithelial cell injury; details: model of targeted AEC2 injury; previously shown by the authors; cited from earlier work
[7] = system: bleomycin-induced lung fibrosis; design: method as in PMID 26859294; details: mice following bleomycin injury; cited from earlier work
[8] = system: TGFβ-expressing adenovirus-induced lung fibrosis; design: method as in PMID 21852684; details: started 4 days after fibrosis initiation; cited from earlier work

[O-][S+]1CCc2nc(N3CCC(c4ncc(Cl)cn4)CC3)nc(NC3(CO)CCC3)c21 (stereo not shown) [BI 1015550]
rate of lung function decline [1]: reduced the rate of lung function decline

NNC(=O)C(=O)NCc1cccc(OC(F)(F)F)c1 [MDI-2268]
IC50 ([2]; buffer containing 10% human PAI-1-depleted plasma): 67 µM
IC50 ([2]; buffer with 50 nM purified human vitronectin): 75 µM
IC50 ([2]; in buffer alone): 140 µM
fold more effective than Tiplaxtinin at inhibiting PAI-1 ([2]; in the presence of VTN): greater than 7 fold
AUC0-7h obs [3]: 7405 ± 1302 ng·h/mL

COC(=O)c1ccc2c(c1)NC(=O)/C2=C(\Nc1ccc(N(C)C(=O)CN2CCN(C)CC2)cc1)c1ccccc1 [Nintedanib]
body weight vs vehicle ([4]; 60 mg/kg twice daily from day 11): recovery of body weight
lung collagen content (hydroxyproline) day 21 ([4]; 60 mg/kg twice daily, 10 days from day 11): statistically significantly attenuated
areas of lung consolidation, picrosirius red histopathology ([4]; 60 mg/kg twice daily, 10 days from day 11, day 21): significantly attenuated
lung hydroxyproline content day 21 ([5]; 10 days from day 11): statistically significantly reduced
weight loss vs vehicle-treated injured group ([5]; 10 days from day 11): mitigated the severity of the weight loss
histopathologic changes (alveolar wall thickening, picrosirius red staining) ([5]; 10 days from day 11, day 21): significantly attenuated
severity of pulmonary scarring [6]: attenuate the severity of pulmonary scarring

CC(C)(C)c1ccc2oc(-c3ccc4cc(OCCCCCC(C(=O)[O-])C(=O)[O-])ccc4c3)nc2c1.[Na+].[Na+] [SK-216]
lung fibrosis [7]: modestly attenuate lung fibrosis

O=C(COCC(=O)N1CCN(C(c2ccccc2)c2ccccc2)CC1)Nc1ccc(Cl)cc1C(=O)O [TM5275]
lung collagen accumulation [8]: significantly decrease lung collagen accumulation

Cc1ccc(=O)n(-c2ccccc2)c1 [pirfenidone]
severity of pulmonary scarring [6]: attenuate the severity of pulmonary scarring
